The target of the first assay is N-acetyl-5-methoxytryptamine receptors. Put plainly: relative affinity for the specific N-acetyl-5-methoxytryptamine receptors. It counts as binding. To be noted: association constant; SE printed in a separate column. On the procedure:
(§1) All the substances were evaluted for their relative affinity and were tested for biological activity by using classical tests.
Consider `COc1ccc2[nH]c(-c3ccccc3)c(CCNC(=O)C3CC3)c2c1` [Compound 4g], for which the “Ka ± SE” value came to 4.1e+09 L/mol.

In a further assay the test system is N-acetyl-5-methoxytryptamine receptors. Put plainly: biological activity by classical tests (agonist/antagonist character).
Conditions: not given
The protocol:
as §1
With `COc1ccc2[nH]c(-c3ccccc3)c(CCNC(=O)C3CC3)c2c1` [Compound 4g], the Activity result was “Partial antagonist”.
On the same count and under the same terms, the same measure for `COc1ccc2[nH]c(Br)c(CCNC(C)=O)c2c1` [Compound 4j, N-acetyl-2-bromo-5-methoxy tryptamine]: “Agonist”.
Still for that read-out and setting: the same measure for `COc1ccc2[nH]c(I)c(CCNC(C)=O)c2c1` [Compound 4k]: “Agonist”.
The same measure, in the same setting: the same measure for `COc1cc2c(CCNC(C)=O)c(Br)[nH]c2cc1Br` [Compound 4l]: “Agonist”; for `COc1ccc2[nH]c(I)c(CCNC(=O)C3CC3)c2c1` [Compound 4i]: “Agonist”.
In the case of `COc1ccc2[nH]c(C)c(CCNC(=O)C3CC3)c2c1` [Compound 4e], the Activity result was “Agonist”.
Same read-out and setting: the same measure for `COc1ccc2[nH]c(-c3ccccc3)c(CCNC(C)=O)c2c1` [Compound 4d]: “Antagonist”; for `COc1ccc2[nH]c(C)c(CCNC(C)=O)c2c1` [Compound 4a]: “Agonist”.
The same measure, in the same setting: the same measure for `COc1ccc2[nH]cc(CCNC(C)=O)c2c1` [Melatonin, N-Acetyl-5-methoxytryptamine, reference compound]: “Agonist”; for `COc1ccc2[nH]c(Br)c(CCNC(=O)C3CC3)c2c1` [Compound 4h]: “Agonsit”.
On the same count and under the same terms, the same measure for `COc1ccc2[nH]c(C3CCCCC3)c(CCNC(C)=O)c2c1` [Compound 4c]: “Partial antagonist”.

The values are drawn from patent EP0585206B1, “Tryptamines for treatment of circadian rhythm disorders” (I.F.L.O. S.a.s. di Giorgio e Aldo Laguzzi, priority 1992, dated 1994).
